“And” between values parts separate entries of the source, which are not always exact repeats. Identical values can stand only once. Like-named read-outs stand apart in the source and are kept apart here.
How the values were obtained:
[1] = assay type: in vivo, human; settings: for AUClast: 0.25-12 hour; for baseline (C0) level: 16 samples; for ratio of mean AUC in SLCO1B1 c.521‐CC to c.521TT: endogenous biomarker; for C0: plasma
OATP1B1 = assay type: in vivo, human; settings: human, plasma, oral; for AUC(0-t): AUClast, 0.25-12 hour; for C0: C0, plasma, baseline
[2] = for AUC(0-t): AUC0→12, text, pravastatin peak only
[3] = pravastatin + cyclosporine, CC (N = 2)
[4] = pravastatin + cyclosporine, TC (N = 6)
[5] = pravastatin + cyclosporine, TT (N = 8)
[6] = pravastatin + cyclosporine, all genotype (N = 16)
[7] = pravastatin + placebo, CC (N = 2)
[8] = pravastatin + placebo, TC (N = 6)
[9] = pravastatin + placebo, TT (N = 8)
[10] = pravastatin + placebo, all genotype (N = 16)
[11] = 12 hours after first CsA dose, pravastatin + cyclosporine, all genotype
[12] = baseline, pravastatin + placebo, all genotype
[13] = pravastatin + cyclosporine (N = 16)

coproporphyrin I [CP‐I]
AUClast [1, 3]: 0.0276 ± 0.0084 µM·h | AUClast [1, 4]: 0.0165 ± 0.0057 µM·h | AUClast [1, 5]: 0.0118 ± 0.0023 µM·h | AUClast [1, 6]: 0.0155 ± 0.0067 µM·h | AUClast [1, 7]: 0.0178 ± 0.0032 µM·h | AUClast [1, 8]: 0.0098 ± 0.0033 µM·h | AUClast [1, 9]: 0.0069 ± 0.0012 µM·h | AUClast [1, 10]: 0.0094 ± 0.0042 µM·h | baseline (C0) level [1]: below the levels of quantification for 12 of 16 samples | AUClast fold increase, pravastatin plus CsA over pravastatin plus placebo ([1]; CC (N = 2)): 1.5 fold | Cavg fold increase, pravastatin plus CsA over pravastatin plus placebo ([1]; CC (N = 2)): 1.6 fold | AUClast fold increase, pravastatin plus CsA over pravastatin plus placebo ([1]; TC (N = 6)): 1.7 fold | Cavg fold increase, pravastatin plus CsA over pravastatin plus placebo ([1]; TC (N = 6)): 2.0 fold | AUClast fold increase, pravastatin plus CsA over pravastatin plus placebo ([1]; TT (N = 8)): 1.7 fold | Cavg fold increase, pravastatin plus CsA over pravastatin plus placebo ([1]; TT (N = 8)): 1.9 fold | Cavg fold increase, pravastatin plus CsA over pravastatin plus placebo ([1]; all genotype): 1.9 fold | Cmax fold increase, pravastatin plus CsA over pravastatin plus placebo ([1]; all genotype (N = 16)): 2.2 fold | ratio of mean AUC in SLCO1B1 c.521‐CC to c.521TT [1]: 2.6 fold | C0 [1, 11]: BLOQ in most samples | C0 [1, 12]: BLOQ in most samples | Cmax [1, 13]: 2.16 ± 0.71 nM | Cavg [1, 3]: 2.50 ± 0.68 nM | Cavg [1, 4]: 1.67 ± 0.33 nM | Cavg [1, 5]: 1.15 ± 0.28 nM | Cavg [1, 6]: 1.51 ± 0.56 nM | Cmax ([1]; pravastatin + placebo (N = 16)): 1.04 ± 0.45 nM | Cavg [1, 8]: 0.88 ± 0.26 nM | Cavg [1, 9]: 0.6 ± 0.1 nM | Cavg [1, 10]: 0.83 ± 0.36 nM and 0.83 ± 0.36****^, ^b nM

coproporphyrin III [CP‐III]
AUClast [1, 3]: 0.00222 ± 0.00013 µM·h | AUClast [1, 4]: 0.00165 ± 0.0006 µM·h | AUClast [1, 5]: 0.00156 ± 0.00024 µM·h | AUClast [1, 6]: 0.00168 ± 0.00044 µM·h | AUClast [1, 7]: 0.0017 ± 1.3e-05 µM·h | AUClast [1, 8]: 0.001 ± 0.00068 µM·h | AUClast [1, 9]: 0.0012 ± 0.00017 µM·h | baseline (C0) level [1]: below the levels of quantification for 12 of 16 samples | AUClast fold increase, pravastatin plus CsA over pravastatin plus placebo ([1]; CC (N = 2)): 1.2 fold | Cavg fold increase, pravastatin plus CsA over pravastatin plus placebo ([1]; CC (N = 2)): 1.3 fold | AUClast fold increase, pravastatin plus CsA over pravastatin plus placebo ([1]; TC (N = 6)): 3.0 fold | Cavg fold increase, pravastatin plus CsA over pravastatin plus placebo ([1]; TC (N = 6)): 1.7 fold | AUClast fold increase, pravastatin plus CsA over pravastatin plus placebo ([1]; TT (N = 8)): 1.3 fold | Cavg fold increase, pravastatin plus CsA over pravastatin plus placebo ([1]; TT (N = 8)): 1.4 fold | AUClast fold increase, pravastatin plus CsA over pravastatin plus placebo ([1]; all genotype): 1.9 fold and 1.68 ± 0.44 (1.9) fold | Cavg fold increase, pravastatin plus CsA over pravastatin plus placebo ([1]; all genotype): 1.5 fold | Cmax fold increase, pravastatin plus CsA over pravastatin plus placebo ([1]; all genotype (N = 16)): 1.7 fold | C0 [1, 11]: BLOQ in most samples | C0 [1, 12]: BLOQ in most samples | Cmax [1, 13]: 0.24 ± 0.05 nM | Cavg [1, 3]: 0.21 ± 0.008 nM | Cavg [1, 4]: 0.18 ± 0.02 nM | Cavg [1, 5]: 0.15 ± 0.03 nM | Cavg [1, 6]: 0.17 ± 0.03 nM | Cmax ([1]; pravastatin + placebo (N = 16)): 0.15 ± 0.039 nM | Cavg [1, 7]: 0.15 ± 0.004 nM | Cavg [1, 8]: 0.11 ± 0.03 nM | Cavg [1, 9]: 0.11 ± 0.02 nM

O=C(O)CCCCCCCCCCCCC(=O)O [TDA, tetradecanedioic acid]
AUClast [1, 6]: 0.902 ± 0.378 µM·h | AUClast [1, 9]: 0.448 ± 0.153 µM·h | AUClast [1, 10]: 0.593 ± 0.489 µM·h | C0 fold increase, pravastatin plus CsA over pravastatin plus placebo ([1]; CC): 0.7 fold | AUClast fold increase, pravastatin plus CsA over pravastatin plus placebo ([1]; CC (N = 2)): 0.9 fold | Cavg fold increase, pravastatin plus CsA over pravastatin plus placebo ([1]; CC (N = 2)): 0.9 fold | C0 fold increase, pravastatin plus CsA over pravastatin plus placebo ([1]; TC): 1.4 fold | AUClast fold increase, pravastatin plus CsA over pravastatin plus placebo ([1]; TC (N = 6)): 1.7 fold | Cavg fold increase, pravastatin plus CsA over pravastatin plus placebo ([1]; TC (N = 6)): 1.8 fold | C0 fold increase, pravastatin plus CsA over pravastatin plus placebo ([1]; TT): 2.1 fold | AUClast fold increase, pravastatin plus CsA over pravastatin plus placebo ([1]; TT (N = 8)): 2.2 fold | Cavg fold increase, pravastatin plus CsA over pravastatin plus placebo ([1]; TT (N = 8)): 2.5 fold | Cavg fold increase, pravastatin plus CsA over pravastatin plus placebo ([1]; all genotype): 2.0 fold | Cmax fold increase, pravastatin plus CsA over pravastatin plus placebo ([1]; all genotype (N = 16)): 2.2 fold | ratio of mean AUC in SLCO1B1 c.521‐CC to c.521TT [1]: 4.0 fold | C0 [1, 11]: 68 ± 26 nM | C0 [1, 12]: 55 ± 44 nM | Cmax [1, 13]: 149 ± 71 nM | Cavg [1, 3]: 144 ± 13.9 nM | Cavg [1, 4]: 64.5 ± 26.4 nM | Cavg [1, 5]: 87.6 ± 29.5 nM | Cavg [1, 6]: 86.0 ± 35.8 nM | Cmax ([1]; pravastatin + placebo (N = 16)): 94.7 ± 118 nM | Cavg [1, 7]: 171 ± 53.7 nM | Cavg [1, 8]: 34.6 ± 10.4 nM | Cavg [1, 9]: 38 ± 13.7 nM | Cavg [1, 10]: 53.3 ± 49.3 nM and 53.3 ± 49.3****^, ^b nM | increase in plasma concentration, Cmax over baseline ([1]; pravastatin plus placebo, individuals homozygous c.521‐CC): at least twofold | time of peak plasma level ([1]; two individuals c.521‐CC): around 3 hours and 3.0 hours | AUC(0-t) (OATP1B1; [3]): 1.55 µM·h | AUC(0-t) (OATP1B1; [4]): 0.652 ± 0.246 µM·h | AUC(0-t) (OATP1B1; [5]): 0.927 ± 0.282 µM·h | AUC(0-t) (OATP1B1; [7]): 1.8 µM·h | AUC(0-t) (OATP1B1; [8]): 0.386 ± 0.084 µM·h | C0 (OATP1B1; pravastatin + placebo, CC): 131 ± 48.9 nM | C0 (OATP1B1; pravastatin + placebo, TC): 31.3 ± 5 nM | C0 (OATP1B1; pravastatin + placebo, TT): 44 ± 24.5 nM

CC[C@H](C)C(=O)O[C@H]1C[C@H](O)C=C2C=C[C@H](C)[C@H](CC[C@@H](O)C[C@@H](O)CC(=O)O)[C@H]21 [pravastatin]
Tmax ([2]; human, plasma, oral, 40 mg): 1.5 h | AUC(0-t) ([2]; human, plasma, oral, 40 mg, pravastatin + placebo, TC): 48 ± 23 ng·h/mL | AUC(0-t) ([2]; human, plasma, oral, 40 mg, pravastatin + placebo, c.521‐TT): 43 ± 15 ng·h/mL | CL/F ([2]; human, plasma, oral, pravastatin + cyclosporine, CC (N = 3)): 10.7 mL/min/kg | CL/F ([2]; human, plasma, oral, pravastatin + cyclosporine, TC (N = 8)): 24.2 mL/min/kg | CL/F ([2]; human, plasma, oral, pravastatin + cyclosporine, TT (N = 9)): 24.5 mL/min/kg | CL/F ([2]; human, plasma, oral, pravastatin + cyclosporine, all genotype): 22.3 mL/min/kg | CL/F ([2]; human, plasma, oral, pravastatin + placebo, CC (N = 3)): 27.5 mL/min/kg | CL/F ([2]; human, plasma, oral, pravastatin + placebo, TC (N = 8)): 90.3 mL/min/kg | CL/F ([2]; human, plasma, oral, pravastatin + placebo, TT (N = 9)): 102 mL/min/kg | CL/F ([2]; human, plasma, oral, pravastatin + placebo, all genotype): 86.2 mL/min/kg | ratio of mean AUC0→12 in SLCO1B1 c.521CC and c.521TT ([2]; named peak only): 3.6 fold | Cmax ([2]; named peak only (not combined), pravastatin + placebo, TC (N=8)): 31 ± 19 ng/mL | V/F ([2]; pravastatin + cyclosporine, CC (N = 3)): 0.85 ± 0.70 L/kg | V/F ([2]; pravastatin + cyclosporine, TC (N = 8)): 1.52 ± 0.54 L/kg | V/F ([2]; pravastatin + cyclosporine, TT (N = 9)): 1.92 ± 1.34 L/kg | V/F ([2]; pravastatin + cyclosporine, all genotype): 1.60 ± 1.02 L/kg | V/F ([2]; pravastatin + placebo, CC (N = 3)): 1.94 ± 1.37 L/kg | V/F ([2]; pravastatin + placebo, TC (N = 8)): 9.49 ± 9.08 L/kg | V/F ([2]; pravastatin + placebo, TT (N = 9)): 9.56 ± 8.74 L/kg | V/F ([2]; pravastatin + placebo, all genotype): 8.39 ± 8.39 L/kg
